Assay results reported in publication PMC4893694, “Identification of potent maturation inhibitors against HIV-1 clade C” (Scientific Reports, 2016).

Experiments:
[1] = Cytotoxicity assay (CellTitre-Blue) in HEK-293T; type: cell-based; conditions: human, HEK-293T cells
Experimental: (§1) Cytotoxicity assays were performed using the CellTitre-Blue Cell Viability Assay kit (Promega, USA) as per manufacturer’s recommendations. HEK-293T and HUT-R5 cell lines were maintained in the presence of serial dilutions of MIs for 4 days and treated with CellTitre-Blue reagent for 4 h at 37 °C. The fluorescent signals were recorded at 530/25excitation and 590/35emission using BioTek microplate reader.

[2] = system: HIV-1 clade C molecular clone K3016 (CA-SP1 processing); type: cell-based; conditions: for activity (CA-SP1 accumulation): K3016, 10 nM; for accumulation of the CA-SP1 processing intermediate over a range of doses: K3016, 2–50 nM
Experimental: (§2) Viral supernatants were pelleted and separated on SDS-PAGE followed by western blotting using HIV-IgG antibody.
(§3) 24 h post-transfection, the culture medium was replaced with fresh DMEM and incubated for another 2 h. MIs were maintained in the culture throughout transfection. […] The clarified supernatants were filtered (pore size 0.45 μm filter disc) to remove residual cellular contaminants. For determination of viral infectivity, the unconcentrated virus was used to infect TZM-bl cells.
(§4) To measure accumulation of CA-SP1, immunoblot analysis of virus-associated proteins was performed. The virus pellet was resuspended in radioimmunoprecipitation assay (RIPA) buffer (50 mM Tris-HCl pH 8.0, 150 mM sodium chloride, 1.0% NP-40, 0.5% sodium deoxycholate, 0.1% SDS) containing 1 × protease inhibitor cocktail (Roche, Germany). […] The proteins were visualized by enhanced chemiluminescence (Pierce, USA) and the bands were quantified using ImageJ software (http://imagej.nih.gov/ij/).

[3] = system: HIV-1 clade C molecular clone IndieC1 (CA-SP1 processing); conditions: HEK-293T transfected with IndieC1, increasing concentrations 0.1–5.0 μM, western blot
Experimental: as §2, §3, §4

[4] = system: HIV-1 clade B molecular clone NL4-3 (CA-SP1 processing); conditions: HEK-293T transfected with NL4-3, increasing concentrations 0.1–5.0 μM, western blot
Experimental: as §2, §3, §4

[5] = system: HIV-1 clade C molecular clone ZM247 (CA-SP1 processing); conditions: HEK-293T transfected with ZM247, increasing concentrations 0.1–5.0 μM, western blot
Experimental: as §2, §3, §4

[6] = system: HIV-1 clade C K3016 virus; assay: Antiviral assay, spreading HIV-1 infection in HUT-R5 T-cell line (p24 reduction); type: cell-based; conditions: Human immunodeficiency virus 1, T-cell, 192 h; HUT-R5 cells infected with K3016, 8 days, HIV-1 p24 in supernatant; representative of two independent experiments
Experimental: HUT-R5 cells were infected with K3016 virus and cultured for eight days in the presence of serial dilutions of each compound. Antiviral activity was monitored by reduction in HIV-1 p24 levels in culture supernatants.
HUT-R5 cells were infected with normalized HIV-1 clade C K3016 virus stocks at 37 °C for 1 h. Cells were then maintained for 8 days in the presence of serial dilutions of MIs. After 8 days, the HIV-1 p24 concentration in the virus supernatants was measured to monitor virus replication.

[7] = Cytotoxicity assay (CellTitre-Blue) in HUT-R5; type: cell-based; conditions: human, HUT-R5 cells; HUT-R5, 4 days
Experimental: as §1

C=C(C)[C@@H]1CC[C@]2(C(=O)O)CC[C@]3(C)[C@H](CC[C@@H]4[C@@]5(C)CC[C@H](OC(=O)CC(C)(C)C(=O)O)C(C)(C)[C@@H]5CC[C@]43C)[C@@H]12 [BVM, 3-0-(3′-3′-dimethylsuccinyl) betulinic acid, reference compound]
CC50 at 4 days [1]: > 5 µM
accumulation of p25 (CA-SP1) ([2]; HEK-293T transfected with K3016, increasing concentrations 0.1–5.0 μM, western blot): resistant
accumulation of p25 (CA-SP1) [3]: resistant
accumulation of p25 (CA-SP1) [4]: dose-dependent accumulation of p25
accumulation of p25 (CA-SP1) [5]: resistant
IC50 [6]: > 1 µM
CC50 at 4 days [7]: > 1 µM

C=C(C)C1CCC2(CCNCCCN3CCCC3)CCC3(C)C(CCC4C5(C)CCC(OC(=O)CC(C)(C)CC(=O)O)C(C)(C)C5CCC43C)C12 (stereo not shown) [Compound 7h]
CC50 at 4 days [1]: > 1 µM
IC50 [6]: 0.0113 µM
CC50 at 4 days [7]: > 1 µM

C=C(C)C1CCC2(CCNC3CCN(C)CC3)CCC3(C)C(CCC4C5(C)CCC(OC(=O)CC(C)(C)CC(=O)O)C(C)(C)C5CCC43C)C12 (stereo not shown) [Compound 7j]
CC50 at 4 days [1]: > 1 µM
IC50 [6]: 0.0059 µM
CC50 at 4 days [7]: > 1 µM

C=C(C)C1CCC2(CCNCCN(C)C)CCC3(C)C(CCC4C5(C)CCC(OC(=O)CC(C)(C)CC(=O)O)C(C)(C)C5CCC43C)C12 (stereo not shown) [Compound 7m]
CC50 at 4 days [1]: > 1 µM
activity (CA-SP1 accumulation) [2]: ~40%
accumulation of the CA-SP1 processing intermediate over a range of doses [2]: dose-dependent accumulation
IC50 [6]: 0.0014 µM
CC50 at 4 days [7]: > 1 µM

C=C(C)C1CCC2(CCNC3CCN(CC)CC3)CCC3(C)C(CCC4C5(C)CCC(OC(=O)CC(C)(C)CC(=O)O)C(C)(C)C5CCC43C)C12 (stereo not shown) [Compound 7r]
CC50 at 4 days [1]: > 1 µM
activity (CA-SP1 accumulation) [2]: ~40%
accumulation of the CA-SP1 processing intermediate over a range of doses [2]: dose-dependent accumulation
IC50 [6]: 0.0015 µM
CC50 at 4 days [7]: > 1 µM

C=C(C)C1CCC2(CCNC3CCN(CCO)CC3)CCC3(C)C(CCC4C5(C)CCC(OC(=O)CC(C)(C)CC(=O)O)C(C)(C)C5CCC43C)C12 (stereo not shown) [Compound 7s]
CC50 at 4 days [1]: > 1 µM
activity (CA-SP1 accumulation) [2]: ~40%
accumulation of the CA-SP1 processing intermediate over a range of doses [2]: dose-dependent accumulation
IC50 [6]: 0.0013 µM
CC50 at 4 days [7]: > 1 µM
